Patent publication US20090264433A1, “Compounds, Compositions and Methods Comprising Triazine Derivatives” (Institute for OneWorld Health, priority 2008, published 2009)
Structures can show the parent of a compound that is named as a salt.

The molecules below were run against T1, CFTR channel in human colonic T84 cells (Homo sapiens, UniProt P13569) (assay: T84 assay (FLIPR membrane potential dye, forskolin/IBMX-stimulated CFTR)). Settings: average of at least 2 runs unless annotated n = 1.
T1 construct: results in the phosphorylation and opening of CFTR anion channels; host or cells: human colonic T84 cells
T1 sequence (P13569 whole entry): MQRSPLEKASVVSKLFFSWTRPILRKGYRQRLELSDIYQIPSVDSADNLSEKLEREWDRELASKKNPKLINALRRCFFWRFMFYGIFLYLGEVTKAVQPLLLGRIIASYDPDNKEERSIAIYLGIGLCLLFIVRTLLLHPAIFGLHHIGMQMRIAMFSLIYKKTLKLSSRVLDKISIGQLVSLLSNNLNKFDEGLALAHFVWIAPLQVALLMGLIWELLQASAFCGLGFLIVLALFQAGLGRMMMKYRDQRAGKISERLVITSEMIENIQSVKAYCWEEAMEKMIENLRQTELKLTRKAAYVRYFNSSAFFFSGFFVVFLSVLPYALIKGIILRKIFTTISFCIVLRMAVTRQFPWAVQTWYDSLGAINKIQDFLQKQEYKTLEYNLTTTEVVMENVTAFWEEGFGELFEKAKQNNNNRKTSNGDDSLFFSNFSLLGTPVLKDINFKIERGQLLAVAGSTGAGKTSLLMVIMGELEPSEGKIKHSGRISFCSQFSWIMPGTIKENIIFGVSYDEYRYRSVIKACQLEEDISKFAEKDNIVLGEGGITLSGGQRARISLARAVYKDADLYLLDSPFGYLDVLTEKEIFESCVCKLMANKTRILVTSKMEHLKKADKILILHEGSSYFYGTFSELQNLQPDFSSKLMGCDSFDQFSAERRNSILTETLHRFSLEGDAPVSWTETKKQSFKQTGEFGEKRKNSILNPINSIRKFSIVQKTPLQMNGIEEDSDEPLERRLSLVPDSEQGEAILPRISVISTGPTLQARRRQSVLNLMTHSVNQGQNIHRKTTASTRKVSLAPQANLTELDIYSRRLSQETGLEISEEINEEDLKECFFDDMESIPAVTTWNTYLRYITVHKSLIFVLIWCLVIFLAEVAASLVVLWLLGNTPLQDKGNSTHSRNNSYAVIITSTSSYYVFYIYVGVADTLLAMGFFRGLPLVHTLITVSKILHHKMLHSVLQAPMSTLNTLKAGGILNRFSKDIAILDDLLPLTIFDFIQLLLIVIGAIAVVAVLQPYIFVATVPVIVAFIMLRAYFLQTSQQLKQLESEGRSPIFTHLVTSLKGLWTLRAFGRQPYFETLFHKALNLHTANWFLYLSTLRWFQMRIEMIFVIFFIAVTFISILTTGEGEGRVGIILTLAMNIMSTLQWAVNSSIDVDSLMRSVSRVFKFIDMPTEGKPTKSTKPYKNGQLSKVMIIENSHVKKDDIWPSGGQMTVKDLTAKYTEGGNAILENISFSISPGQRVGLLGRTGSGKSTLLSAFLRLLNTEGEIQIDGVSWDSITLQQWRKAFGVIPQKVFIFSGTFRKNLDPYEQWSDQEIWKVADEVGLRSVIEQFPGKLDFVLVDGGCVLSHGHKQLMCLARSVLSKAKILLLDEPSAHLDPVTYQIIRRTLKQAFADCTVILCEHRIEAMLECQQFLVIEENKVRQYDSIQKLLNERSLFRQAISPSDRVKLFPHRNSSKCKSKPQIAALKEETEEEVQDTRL
Format: cell-based
In short: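 T84 cells (25,000/well, grown overnight) were washed in HBSS with 10 mM Hepes, then loaded with FLIPR Red membrane potential dye for 45 min with or without compound. CFTR was stimulated with 10 μM forskolin plus 100 μM IBMX after a 10 s baseline. Depolarization was tracked as a fluorescence increase, read every second for 150 s.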

Compound	IC50 [µM]
Oc1c(Br)cc(-c2cnc(OCc3cccc(Br)c3)nn2)cc1Br [Compound 25, 2,6-dibromo-4-(3-(3-bromobenzyloxy)-1,2,4-triazin-6-yl)phenol]	19.8
Oc1c(Br)cc(-c2cnc(COc3ccc(Br)cc3)nn2)cc1Br [Compound 49, 2,6-dibromo-4-(3-((4-bromophenoxy)methyl)-1,2,4-triazin-6-yl)phenol]	15.3
Oc1c(Cl)cc(-c2cnc(COc3cccc(Cl)c3Cl)nn2)cc1Cl [Compound 37, 2,6-dichloro-4-(3-((2,3-dichlorophenoxy)methyl)-1,2,4-triazin-6-yl)phenol]	8.61
Oc1c(Br)cc(-c2cnc(COc3ccc(C4SCCS4)cc3)nn2)cc1Br [Compound 51, 4-(3-((4-(1,3-dithiolan-2-yl)phenoxy)methyl)-1,2,4-triazin-6-yl)-2,6-dibromophenol]	18.8
Oc1c(Cl)cc(-c2cnc(NCc3cccc(Cl)c3Cl)nn2)cc1Cl [Compound 121, 2,6-Dichloro-4-(3-(2,3-dichlorobenzylamino)-1,2,4-triazin-6-yl)phenol]	13.1
Oc1c(Br)cc(-c2cnc(OCc3ccc(OC(F)(F)F)cc3)nn2)cc1Br [Compound 28, 2,6-dibromo-4-(3-(4-(trifluoromethoxy)benzyloxy)-1,2,4-triazin-6-yl)phenol]	15.5
Oc1c(Br)cc(-c2cnc(-c3cccc(Oc4ccccc4)c3)nn2)cc1Br [Compound 129, 2,6-dibromo-4-(3-(3-phenoxyphenyl)-1,2,4-triazin-6-yl)phenol]	24.8
CN(CCOc1ncc(-c2cc(Cl)c(O)c(Cl)c2)nn1)Cc1ccccc1 [Compound 138, 4-(3-(2-(benzyl(methyl)amino)ethoxy)-1,2,4-triazin-6-yl)-2,6-dichlorophenol]	18.9
Cc1cc(Cl)ccc1OCc1ncc(-c2cc(Br)c(O)c(Br)c2)nn1 [Compound 39, 2,6-dibromo-4-(3-((4-chloro-2-methylphenoxy)methyl)-1,2,4-triazin-6-yl)phenol]	10.9
Oc1c(Br)cc(-c2cnc(COc3cccc(Cl)c3Cl)nn2)cc1Br [Compound 30, 2,6-dibromo-4-(3-((2,3-dichlorophenoxy)methyl)-1,2,4-triazin-6-yl)phenol]	9.59
CC(=O)N1CCN(Cc2ccc(COc3ncc(-c4cc(Cl)c(O)c(Cl)c4)nn3)cc2)CC1 [Compound 216, 1-(4-(4-((6-(3,5-dichloro-4-hydroxyphenyl)-1,2,4-triazin-3-yloxy)methyl)benzyl)piperazin-1-yl)ethanone]	23.2
CN(C)c1ccccc1COc1ncc(-c2cc(Cl)c(O)c(Cl)c2)nn1 [Compound 140, 2,6-dichloro-4-(3-(2-(dimethylamino)benzyloxy)-1,2,4-triazin-6-yl)phenol]	19.4
Oc1c(Br)cc(-c2cnc(C(O)(c3ccc(Cl)cc3)c3ccc(Cl)cc3)nn2)cc1Br [Compound 100, 4-(3-(bis(4-chlorophenyl)(hydroxy)methyl)-1,2,4-triazin-6-yl)-2,6-dibromophenol]	7.77
Oc1c(Cl)cc(-c2cnc(OCc3ccc(CN4CCN(Cc5cccnc5)CC4)cc3)nn2)cc1Cl [Compound 158, 2,6-dichloro-4-(3-(4-((4-(pyridin-3-ylmethyl)piperazin-1-yl)methyl)benzyloxy)-1,2,4-triazin-6-yl)phenol]	14.2
C=CCc1ccccc1OCc1ncc(-c2cc(Br)c(O)c(Br)c2)nn1 [Compound 44, 4-(3-((2-allylphenoxy)methyl)-1,2,4-triazin-6-yl)-2,6-dibromophenol]	12.7
Oc1c(Br)cc(-c2cnc(OC(c3cccc(C(F)(F)F)c3)c3cccc(C(F)(F)F)c3)nn2)cc1Br [Compound 109, 4-(3-(bis(3-(trifluoromethyl)phenyl)methoxy)-1,2,4-triazin-6-yl)-2,6-dibromophenol]	12.2
CN(Cc1ccncc1)Cc1ccc(COc2ncc(-c3cc(Cl)c(O)c(Cl)c3)nn2)cc1 [Compound 175, 2,6-dichloro-4-(3-(4-((methyl(pyridin-4-ylmethyl)amino)methyl)benzyl-oxy)-1,2,4-triazin-6-yl)phenol]	11.7
Oc1c(Br)cc(-c2cnc(Cc3cccc4ccccc34)nn2)cc1Br [Compound 130, 2,6-dibromo-4-(3-(naphthalen-1-ylmethyl)-1,2,4-triazin-6-yl)phenol]	28.9
CN(Cc1ccc(COc2ncc(-c3cc(Cl)c(O)c(Cl)c3)nn2)cc1)Cc1cccc(-c2cncnc2)c1 [Compound 206, 2,6-dichloro-4-(3-(4-((methyl(3-(pyrimidin-5-yl)benzyl)amino)methyl)benzyl-oxy)-1,2,4-triazin-6-yl)phenol]	9.6
Oc1c(Cl)cc(-c2cnc(OCc3ccc(CN4CCC(O)(c5ccccc5)CC4)cc3)nn2)cc1Cl [Compound 173, 1-(4-((6-(3,5-dichloro-4-hydroxyphenyl)-1,2,4-triazin-3-yloxy)methyl)benzyl)-4-phenylpiperidin-4-ol]	28.4

Now those with a lower IC50, led by results:

IC50 [µM]	Compound
7.31	CC(C)(c1ccccc1)c1ccc(OCc2ncc(-c3cc(Br)c(O)c(Br)c3)nn2)cc1 [Compound 35, 2,6-dibromo-4-(3-((4-(2-phenylpropan-2-yl)phenoxy)methyl)-1,2,4-triazin-6-yl)phenol]
5.19	CN(Cc1ccc(COc2ncc(-c3cc(Cl)c(O)c(Cl)c3)nn2)cc1)Cc1ccc(OCCN2CCOCC2)cc1 [Compound 214, 2,6-dichloro-4-(3-(4-((methyl(4-(2-morpholinoethoxy)benzyl)amino)methyl)benzyloxy)-1,2,4-triazin-6-yl)phenol]
4.9	CN(Cc1ccc(COc2ncc(-c3cc(Cl)c(O)c(Cl)c3)nn2)cc1)Cc1cccc(CN2CCCC2)c1 [Compound 212, 2,6-dichloro-4-(3-(4-((methyl(3-(pyrrolidin-1-ylmethyl)benzyl)amino)methyl)benzyloxy)-1,2,4-triazin-6-yl)phenol, formate salt]
3.92	CN(Cc1ccc(COc2ncc(-c3cc(Cl)c(O)c(Cl)c3)nn2)cc1)Cc1ccc(Oc2ccccn2)cc1 [Compound 176, 2,6-dichloro-4-(3-(4-((methyl(4-(pyridin-2-yloxy)benzyl)amino)methyl)benzyloxy)-1,2,4-triazin-6-yl)phenol]
3.55	OCCN(Cc1ccc(COc2ncc(-c3cc(Cl)c(O)c(Cl)c3)nn2)cc1)Cc1cccc(OCc2ccccc2Cl)c1 [Compound 223, 2,6-dichloro-4-(3-(4-(((3-(2-chlorobenzyloxy)benzyl)(2-hydroxyethyl)amino)methyl)benzyloxy)-1,2,4-triazin-6-yl)phenol]
3.54	Oc1c(Cl)cc(-c2cnc(OCc3ccc(CN4CCc5ccc(Br)cc5C4)cc3)nn2)cc1Cl [Compound 180]
3.31	Oc1c(Cl)cc(-c2cnc(OCc3ccc(CN4Cc5ccc(F)cc5C4)cc3)nn2)cc1Cl [Compound 178, 2,6-dichloro-4-(3-(4-((5-fluoroisoindolin-2-yl)methyl)benzyloxy)-1,2,4-triazin-6-yl)phenol]
2.66	CN(Cc1ccccc1)Cc1ccc(COc2ncc(-c3cc(Cl)c(O)c(Cl)c3)nn2)cc1 [Compound 163, 4-(3-(4-((benzyl(methyl)amino)methyl)benzyloxy)-1,2,4-triazin-6-yl)-2,6-dichlorophenol]
2.43	Cc1cncc(Oc2cccc(CN(C)Cc3ccc(COc4ncc(-c5cc(Cl)c(O)c(Cl)c5)nn4)cc3)c2)n1 [Compound 203, 2,6-dichloro-4-(3-(4-((methyl(3-(6-methylpyrazin-2-yloxy)benzyl)amino)methyl)benzyloxy)-1,2,4-triazin-6-yl)phenol]
2.22	CN(Cc1ccc(COc2ncc(-c3cc(Cl)c(O)c(Cl)c3)nn2)cc1)Cc1cccc(-c2ccncc2)c1 [Compound 177, 2,6-dichloro-4-(3-(4-((methyl(3-(pyridin-4-yl)benzyl)amino)methyl)benzyl-oxy)-1,2,4-triazin-6-yl)phenol]
1.98	Oc1c(Cl)cc(-c2cnc(OCCNCc3ccccc3)nn2)cc1Cl [Compound 124, 4-(3-(2-(benzylamino)ethoxy)-1,2,4-triazin-6-yl)-2,6-dichlorophenol]
1.87	CN(Cc1ccc(COc2ncc(-c3cc(Cl)c(O)c(Cl)c3)nn2)cc1)Cc1ccc(-c2ncccn2)cc1 [Compound 202, 2,6-dichloro-4-(3-(4-((methyl(4-(pyrimidin-2-yl)benzyl)amino)methyl)benzyl-oxy)-1,2,4-triazin-6-yl)phenol]
1.18	Oc1c(Br)cc(-c2cnc(OCc3ccccc3Cl)nn2)cc1Br [Compound 18, 2,6-dibromo-4-(3-(2-chlorobenzyloxy)-1,2,4-triazin-6-yl)phenol]
0.72	Oc1c(Br)cc(-c2cnc(OCc3ccc4ccccc4c3)nn2)cc1Br [Compound 8, 2,6-dibromo-4-(3-(naphthalen-2-ylmethoxy)-1,2,4-triazin-6-yl)phenol]
0.66	Oc1c(Br)cc(-c2cnc(OCCc3ccc(Cl)cc3Cl)nn2)cc1Br [Compound 10, 2,6-dibromo-4-(3-(2,4-dichlorophenethoxy)-1,2,4-triazin-6-yl)phenol]
0.61	Oc1c(Cl)cc(-c2cnc(OCCc3ccc(Br)cc3)nn2)cc1Cl [Compound 117, 4-(3-(4-bromophenethoxy)-1,2,4-triazin-6-yl)-2,6-dichlorophenol]
0.45	COc1ccc(CCOc2ncc(-c3cc(Br)c(O)c(Br)c3)nn2)cc1 [Compound 97, 2,6-dibromo-4-(3-(4-methoxyphenethoxy)-1,2,4-triazin-6-yl)phenol]
0.35	Oc1c(Cl)cc(-c2cnc(OCCc3cccc4ccccc34)nn2)cc1Cl [Compound 115, 2,6-dichloro-4-(3-(2-(naphthalen-1-yl)ethoxy)-1,2,4-triazin-6-yl)phenol]
0.26	Oc1c(Br)cc(-c2cnc(OCCc3ccc(Cl)c(Cl)c3)nn2)cc1Br [Compound 99, 2,6-dibromo-4-(3-(3,4-dichlorophenethoxy)-1,2,4-triazin-6-yl)phenol]
